Reference: patent publication US12441725B2, “ISO-citrate dehydrogenase (IDH) inhibitor” (ZHEJIANG METON PHARMACEUTICAL CO., LTD, priority 2019, dated 2025)
pIC50: −log10 of the molar value.

Columns and labels:
IDH1 R132C = target: T1, IDH1 R132C (Homo sapiens, UniProt O75874, R132C); test: Biochemical assay for IDH inhibition (NADPH fluorescence), mutant IDH1 R132C; settings: 25 nM IDH1-R132C, 1 hour pre-incubation, in triplet
T1 construct: 6xHis
Description: (§1) The present disclosure provides a biochemical assay method for detecting the IDH inhibition and selectivity of the compounds by detecting IDH enzyme activity directly.
(§2) Wild-type IDH enzymes convert NADP^+ to NADPH when catalyzing the α-KG producing reaction. Mutant IDH enzymes convert NADPH to NADP^+ when catalyzing the D-2-HG producing reaction. So, the activity of wild-type and mutant IDH1/2 could be measured by monitoring NADPH level change as NADPH is fluorescent (Excitation 340 nm, Emission 460 nm). By monitoring the change of NADPH level in the reaction, the enzyme activity could be determined rapidly and efficiently and IC50 of a compound could also be assayed.
(§3) The test compounds are prepared into 50 mM stock solutions in DMSO and stored at −20° C. Each test compound stock is further diluted to obtain a 100× stock solution at a concentration of 400 μM, 200 μM, 100 μM, 50 μM, 25 μM, 12.5 μM, 6.25 μM and 3.125 μM, respectively, for the final use on the day of test (the concentration range of 100× stock solutions might be adjusted to cover the estimated IC50 of a specific test compound).
(§4) Inhibition of Mutant IDH1 (R132H or R132C):
(§5) To assay the enzymatic activity of mutant IDH1 proteins, 25 nM IDH1-R132C or 50 nM IDH1-R132H protein solutions are prepared in 20 mM Tris-HCl pH7.5, 150 mM NaCl, 10 mM MgCl2, 1 mM DTT, 0.05 mg/ml BSA and 1.33 mM α-KG. 148 μL 25 nM IDH1-R132C or 50 nM IDH1-R132H protein solutions are mixed with 2 μL DMSO (vehicle control for test compounds) or an above-mentioned 100× stock solution of a test compound and incubated for 1 hour at room temperature. Extra reactions containing 148 μL no-enzyme solution (20 mM Tris-HCl pH7.5, 150 mM NaCl, 10 mM MgCl2, 1 mM DTT, 0.05 mg/ml BSA and 1.33 mM α-KG) and 2 μL DMSO are also set up as background controls. Then each reaction is initiated by adding 50 μL 80 μM NADPH solution prepared in 20 mM Tris-HCl pH7.5, 150 mM NaCl, 10 mM MgCl2, 1 mM DTT and 0.05 mg/ml BSA. BioTek Synergy H1 Microplate reader (BioTek Instruments Inc., Winooski, U.S.) is employed to monitor the NADPH fluorescence (Excitation 340 nm, Emission 460 nm) every 42 seconds for 15 minutes. NADPH change rate is determined according to the linear phase of the fluorescence-time curve and results from the background control reactions are used as background subtraction to calculate the net NADPH change rates of other reactions. The net NADPH change rates from the vehicle control reactions are used as 100% enzymatic activity and thus the relative enzymatic activity of reactions with test compounds added could be determined. Then a dose-response curve is drawn for each test compound and the corresponding IC50 is calculated. The IC50 value is used to evaluate the inhibition and selectivity of each test compound on the IDH enzymatic activity.
(§6) The IDH inhibition activity of the compounds were assessed according to Test 2 of the Biological Assay section. The test for mutant IDH1 R132H and IDH1 R132C inhibition of each compound was carried out in triplet. As used in Table 5, “A” refers to an inhibitory activity against IDH1 R132H or IDH1 R132C with an IC50<0.1 μM; “B” refers to an inhibitory activity against IDH1 R132H or IDH1 R132C with an IC50 from 0.1 μM to 0.5 μM; “C” refers to an inhibitory activity against IDH1 R132H or IDH1 R132C with an IC50 from 0.5 μM to 1 μM; “D” refers to an inhibitory activity against IDH1 R132H or IDH1 R132C with an IC50>1 μM.

IDH1 R132H = target: T2, IDH1 R132H (Homo sapiens, UniProt O75874, R132H); test: Biochemical assay for IDH inhibition (NADPH fluorescence), mutant IDH1 R132H; settings: 50 nM IDH1-R132H, 1 hour pre-incubation, in triplet
T2 construct: 6xHis
T2 sequence (O75874 whole entry R132H): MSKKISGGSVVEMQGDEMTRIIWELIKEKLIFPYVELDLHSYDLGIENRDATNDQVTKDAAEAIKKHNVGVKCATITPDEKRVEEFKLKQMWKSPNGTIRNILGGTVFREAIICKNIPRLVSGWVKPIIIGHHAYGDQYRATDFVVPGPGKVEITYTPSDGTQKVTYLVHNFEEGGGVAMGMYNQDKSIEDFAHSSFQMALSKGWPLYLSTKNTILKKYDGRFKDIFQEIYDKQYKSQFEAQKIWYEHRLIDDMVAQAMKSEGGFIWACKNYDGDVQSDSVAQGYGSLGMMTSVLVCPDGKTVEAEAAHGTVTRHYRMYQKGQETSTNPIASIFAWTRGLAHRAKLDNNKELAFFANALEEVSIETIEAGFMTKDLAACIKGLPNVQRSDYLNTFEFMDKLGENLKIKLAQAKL
Description: as §1, §2, §3, §4, §5, §6

[1] = target: T3, IDH (endogenous IDH1 R132C) in HT1080 cell (Homo sapiens, UniProt O75874, R132C); test: Cell-based assay for IDH inhibition (decrease of D-2-HG) in HT1080 cells; settings: human fibrosarcoma cell line HT1080, 16 hours treatment, D-2-HG by LC-MS, in triplet
T3 construct: which harbor endogenous heterozygous IDH1 R132C and R132H mutation respectively and accumulate D-2-HG
T3 sequence (O75874 2-414 R132C): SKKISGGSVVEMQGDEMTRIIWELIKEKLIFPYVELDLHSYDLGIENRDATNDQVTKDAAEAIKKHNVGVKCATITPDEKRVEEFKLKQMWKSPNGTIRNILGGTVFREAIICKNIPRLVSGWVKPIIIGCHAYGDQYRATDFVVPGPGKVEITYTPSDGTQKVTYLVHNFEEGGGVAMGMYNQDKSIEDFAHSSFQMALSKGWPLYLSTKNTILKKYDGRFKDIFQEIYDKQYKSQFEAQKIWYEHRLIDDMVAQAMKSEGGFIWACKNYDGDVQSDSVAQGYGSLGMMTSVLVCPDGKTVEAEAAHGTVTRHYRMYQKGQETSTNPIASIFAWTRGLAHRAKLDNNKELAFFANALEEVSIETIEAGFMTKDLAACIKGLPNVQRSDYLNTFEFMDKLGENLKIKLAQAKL
Description: The present disclosure also provides a cell-based method for assaying IDH inhibition and selectivity of the compounds in human fibrosarcoma cell line HT1080 and cholangiocarcinoma cell line HCCC 9810, which harbor endogenous heterozygous IDH1 R132C and R132H mutation respectively and accumulate D-2-HG. Tumor -derived IDH mutant lost its normal activity of producing α-KG, and gained a new activity of producing D-2-HG. D-2-HG is a metabolite specifically elevated in tumor cells expressing mutant IDH1 or IDH2 proteins. When treating such mutant IDH-expressing tumor cells with an effective IDH inhibitor, the synthesis of D-2-HG is blocked, and D-2-HG concentration is decreased by the oxidation reaction catalyzed by the endogenous D-2-HG dehydrogenase.
To perform a cell-based IDH inhibition assay, HT1080 and HCCC 9810 cells (or other cell lines harboring different IDH mutations) are cultured in DMEM supplemented with 10% FBS. The cells are treated with compounds of present disclosure at various different concentrations. 16 hours after the treatment, culture medium supernatants are removed and cell metabolites are extracted by 40% methanol and 40% acetonitrile in water (pre-chilled under −80° C.) at 4° C. for 1 hour. The extract supernatants are collected and cell debris are removed via high speed centrifugation. The resulting metabolite extracts are analyzed on an Agilent LC-MS system (model: 1290-6470) for 2-HG and glutamate concentration. A HILIC-Z column (2.1 mm×100 mm, […]) is employed on HPLC. Mobile phase A is 15 mM CH3COONH4 and 0.3% NH3·H2O in water. Mobile phase B is 15 mM CH3COONH4 and 0.3% NH3·H2O in 90% MeCN/10% H2O solvent. An 19% solvent A and 81% solvent B isocratic gradient method is used at a flow rate of 0.3 ml/min. D-2-HG is ionized under negative ion spray mode and detected through the multiple-reaction monitoring of a mass transition pair at m/z=147.0/128.9 and 147.0/85.1. Glutamate is ionized under ion spray mode and detected on negative polarity multiple-reaction monitoring of a mass transition pair at m/z=146/102 and 146/128 and its level is used to normalize 2-HG concentration. The activity of cellular mutant IDH proteins in the presence of each test compound at different concentrations can be represented by relative D-2-HG concentration to negative control samples (i.e., cells are treated with DMSO only), and the IC50 value could be determined to evaluate the inhibition and selectivity of each test compound on the IDH enzymatic activity.
The IDH inhibition activity of the compounds were assessed in human fibrosarcoma cell line HIT1080 according to Test 3 of the Biological Assay section. The test for IDH inhibition of each compound was carried out in triplet. As used in Table 6, “A” refers to an IDH inhibitory activity with an IC50<0.1 μM; “B” refers to an IDH inhibitory activity with an IC50 from 0.1 μM to 0.5 μM; “C” refers to an IDH inhibitory activity with an IC50 from 0.5 μM to 1 μM; “D” refers to an IDH inhibitory activity with an IC50>1 μM.

T1 sequence (O75874 whole entry R132C): as the sequence (O75874 whole entry R132H) above, with H132C counted along it

SMILES	pIC50 (IDH1 R132C)	pIC50 (IDH1 R132H)	pIC50 [1]
CCN1Cc2c(ccnc2N[C@@H](C)c2ccc(Oc3ccc4c(ccn4C(C)C)c3)c(F)c2)C1=O [Compound 9, (S)-2-ethyl-4-((1-(3-fluoro-4-((1-isopropyl-1H-indol-5-yl)oxy)phenyl)ethyl)amino)-2,3-dihydro-1H-pyrrolo[3,4-c]pyridin-1-one]	6.30 to 7.00	6.30 to 7.00	6.30 to 7.00
CCN1Cc2c(ccnc2N[C@@H](C)c2ccc(C3=CCN(C(C)(C)C)CC3)c(F)c2)C1=O [Compound 35, (S)-4-((1-(4-(1-(tert-butyl)-1,2,3,6-tetrahydropyridin-4-yl)-3-fluorophenyl)ethyl)amino)-2-ethyl-2,3-dihydro-1H-pyrrolo[3,4-c]pyridin-1-one]	< 6.00	< 6.00	< 6.00
CCN1Cc2c(ccnc2N[C@@H](C)c2ncc(-c3ccccc3)cn2)C1=O [Compound 47, (S)-2-ethyl-4-((1-(5-phenylpyrimidin-2-yl)ethyl)amino)-2,3-dihydro-1H-pyrrolo[3,4-c]pyridin-1-one]	< 6.00	< 6.00	< 6.00
CCN1Cc2c(ccnc2N[C@@H](C)c2ccc(Nc3ccccc3)c(F)c2)C1=O [Compound 32, (S)-2-ethyl-4-((1-(3-fluoro-4-(phenylamino)phenyl)ethyl)amino)-2,3-dihydro-1H-pyrrolo[3,4-c]pyridin-1-one]	< 6.00	< 6.00	< 6.00
CCN1Cc2c(ccnc2N[C@@H](C)c2cc(C(C)(C)C)ncc2F)C1=O [Compound 63, (S)-4-((1-(2-(tert-butyl)-5-fluoropyridin-4-yl)ethyl)amino)-2-ethyl-2,3-dihydro-1H-pyrrolo[3,4-c]pyridin-1-one]	< 6.00	< 6.00	< 6.00
CCN1Cc2c(ccnc2N[C@@H](C)c2ccc(-c3ccc(C(F)(F)F)cc3)c(F)c2)C1=O [Compound 33, (S)-2-ethyl-4-((1-(2-fluoro-4′-(trifluoromethyl)-[1,1′-biphenyl]-4-yl)ethyl)amino)-2,3-dihydro-1H-pyrrolo[3,4-c]pyridin-1-one]	< 6.00	6.00 to 6.30	< 6.00
CCN1Cc2c(ccnc2N[C@@H](C)c2ccc(Oc3ccc4c(c3)ncn4C)c(F)c2)C1=O [Compound 8, (S)-2-ethyl-4-((1-(3-fluoro-4-((1-methyl-1H-benzo[d]imidazol-5-yl)oxy)phenyl)ethyl)amino)-2,3-dihydro-1H-pyrrolo[3,4-c]pyridin-1-one]	< 6.00	< 6.00	< 6.00
CCN1Cc2c(ccnc2N[C@@H](C)c2ccc(Cc3ccnc(C(F)(F)F)c3)c(F)c2)C1=O [Compound 53, (S)-2-ethyl-4-((1-(3-fluoro-4-((2-(trifluoromethyl)pyridin-4-yl)methyl)phenyl)ethyl)amino)-2,3-dihydro-1H-pyrrolo[3,4-c]pyridin-1-one]	< 6.00	< 6.00	–

Results, then the compound that gave them:

pIC50 (IDH1 R132C)	pIC50 (IDH1 R132H)	pIC50 [1]	SMILES
> 7.00	> 7.00	> 7.00	CCN1Cc2c(ccnc2N[C@@H](C)c2cc(F)c(-c3cc(C(C)(C)C)ncc3OC)cc2F)C1=O [Compound 116, (S)-4-((1-(4-(2-(tert-butyl)-5-methoxypyridin-4-yl)-2,5-difluorophenyl)ethyl)amino)-2-ethyl-2,3-dihydro-1H-pyrrolo[3,4-c]pyridin-1-one]
> 7.00	> 7.00	> 7.00	CCN1Cc2c(ccnc2N[C@@H](C)c2cc(F)c(-c3cc(C(C)(C)F)cc(CF)n3)cc2F)C1=O [Compound 118, (S)-4-((1-(2,5-difluoro-4-(6-(fluoromethyl)-4-(2-fluoropropan-2-yl)pyridin-2-yl)phenyl)ethyl)amino)-2-ethyl-2,3-dihydro-1H-pyrrolo[3,4-c]pyridin-1-one]
< 6.00	< 6.00	6.30 to 7.00	CCN1Cc2c(ccnc2N[C@@H](C)c2cc(F)c(-c3ccnc(-c4ccn(C)c4)c3)cc2F)C1=O [Compound 92, (S)-4-((1-(2,5-difluoro-4-(2-(1-methyl-1H-pyrrol-3-yl)pyridin-4-yl)phenyl)ethyl)amino)-2-ethyl-2,3-dihydro-1H-pyrrolo[3,4-c]pyridin-1-one]
> 7.00	> 7.00	> 7.00	CCN1Cc2c(ccnc2N[C@@H](C)c2cc(F)c(-c3cc(C(C)(C)C)ncc3O)cc2F)C1=O [Compound 138, (S)-4-((1-(4-(2-(tert-butyl)-5-hydroxypyridin-4-yl)-2,5-difluorophenyl)ethyl)amino)-2-ethyl-2,3-dihydro-1H-pyrrolo[3,4-c]pyridin-1-one]
< 6.00	6.00 to 6.30	< 6.00	CCN1Cc2c(ccnc2N[C@@H](C)c2ccc(C3CCCC3)c(F)c2)C1=O [Compound 68, 4-[[(1S)-1-(4-cyclopentyl-3-fluoro-phenyl)ethyl]amino]-2-ethyl-3H-pyrrolo[3,4-c]pyridin-1-one]
